Measurements taken from patent US20250084039A1, “4-SUBSTITUTED AMINOISOQUINOLINE DERIVATIVES” (Purdue Research Foundation, priority 2016, published 2025).

Experiments:
[1] = system: MRC5; assay: Selectivity, proliferation IC50 (normal cell line); format: cell-based; details: Homo sapiens, read-out: IC50 MRC5 (normal lung fibroblast)
Procedure: Cell lines were seeded into 96-well plates the afternoon prior to treatment. Approximately 18 hours later, compounds were diluted in dimethyl sulfoxide (DMSO) and added to cells. Plates were incubated for 72 hours and cells viability determined with CellTiter-Blue Cell Viability Assay (Promega, Madison, WI). Plates were read after 4 additional hours of incubation at 37° C. using plate reader (Bio-Tek, Winooski. VT). Data was analyzed and graphed using GraphPad Prism Software (Graphpad. La Jolla, CA).

[2] = system: FLT3 phosphorylation; assay: Western blot in MV4-11; format: cell-based, human
Procedure: Total protein extracts were prepared using RIPA buffer (SIGMA) supplemented with Complete Mini™ protease inhibitor and PHOStop™ phosphatase inhibitors (Roche). […] The membrane was blocked with 5% dry milk in 1×TBS/0.1% Tween 20 (TBST) for at least 1 h at room temperature and incubated with human specific primary antibodies: FLT3, Phospho-FLT3, c-Myc (Cell Signaling Technologies), KRAS (Santa Cruz), or mouse anti-β-actin (SIGMA) overnight at 4° C. The membrane was washed 3 times in TBST and incubated with a horseradish peroxidase-conjugated secondary anti-rabbit or anti-mouse antibody (Cell Signaling Technologies) for 1 h at room temperature. Blots were again washed and the signal was detected with SuperSignal West Femto Chemiluminescent Substrate (Pierce) and exposed to HyBlot CL® autoradiography film (Denville).

[3] = system: STAT3 phosphorylation; assay: Western blot in MV4-11; format: cell-based, human
Procedure: (§1) Effect of HSW630-1 on protein expression was tested in the MV4-11 leukemia cell line. Total protein extracts were prepared using RIPA buffer (SIGMA) supplemented with Complete Mini™ protease inhibitor and PHOStop™ phosphatase inhibitors (Roche). Equal amounts of proteins (up to 25 μg) were separated on 4-12% NuPAGE gels in 1×MOPS or 1×MES buffer (Invitrogen) and transferred onto PVDF membranes (Millipore). The membrane was blocked with 5% dry milk in 1×TBS/0.1% Tween 20 (TBST) for at least 1 h at room temperature and incubated with human specific primary antibodies: FLT3, Phospho-FLT3, c-Myc (Cell Signaling Technologies), KRAS (Santa Cruz), or mouse anti-β-actin (SIGMA) overnight at 4° C. The membrane was washed 3 times in TBST and incubated with a horseradish peroxidase-conjugated secondary anti-rabbit or anti-mouse antibody (Cell Signaling Technologies) for 1 h at room temperature. Blots were again washed and the signal was detected with SuperSignal West Femto Chemiluminescent Substrate (Pierce) and exposed to HyBlot CL® autoradiography film (Denville).
(§2) To determine if the phosphorylation of FLT3, SRC kinase and downstream effectors or kinases (such as STAT3 [44], STAT5 [45] and p-38 [46]) could be affected by the compounds. […] The level of SRC kinase increased over time (amount at the 48 h time point is greater than at the 6 and 24 h time points). Unfortunately the bands for the phosphorylated SRC kinase are blurred despite repeated attempts to get clearer bands. […] From the above Western analyses, it is confirmed that the proliferation inhibition of MV4-11 is due to the inhibition of FLT3 signaling axis.

[4] = system: STAT5 phosphorylation; assay: Western blot in MV4-11; format: cell-based, human
Procedure: as §1, §2

[5] = system: p-38 phosphorylation; assay: Western blot in MV4-11; format: cell-based, human
Procedure: as §1, §2

Cc1ccc(C(=O)Nc2ccc(CN3CCN(C)CC3)c(C(F)(F)F)c2)cc1C#Cc1c(N)ncc2ccc(Cl)cc12 [HSN286]
IC50 [1]: 1270 nM
FLT3 phosphorylation (Western) [2]: inhibited
STAT3 phosphorylation (Western) [3]: inhibited
STAT5 phosphorylation (Western) [4]: inhibited
p-38 phosphorylation (Western) [5]: inhibited
